Measurements taken from patent publication US11759437B2, “Preventive and therapeutic approach for aberrant cell differentiation and ISR-associated diseases” (The University of Hong Kong, priority 2016, dated 2023).

Columns and labels:
prion-infected mice = details: cited from earlier work
13del mice = assay type: in vivo
mice = details: cited from earlier work
wild-type mice = test: ISRIB treatment of wild-type littermates; assay type: in vivo, mouse
Protocol: The potential of ISRIB to modify the chondrodysplasia phenotype was tested by treating 13del and wild-type littermates with ISRIB or vehicle twice daily by intraperitoneal injection from E13.5 (onset of expression of 13del transgene) to postnatal day 20 (p20) (FIG. 8A).
ISRIB (SML0843, Sigma) was dissolved in DMSO to make a 5 mg/ml stock and stored at 4-degree. Animals were intraperitoneally injected with ISRIB ((103, 104) (2.5 mg/kg, diluted in 0.9% saline) or vehicle (5% DMSO in saline) from E13.5 till p20 stage. The animals were collected at p10 and p20 stages for further analysis.

[1] = test system: Mouse models of chondrodysplasia; details: cited from earlier work
[2] = test system: congenital skeletal dysplasias; details: cited from earlier work
Fgf21 = Fgf21 expression after ER stress inducer tunicamycin in fibroblasts and ATDC5 cells; assay type: cell-based, mouse; details: NIH3T3 and MEF cells and ATDC5 cells, tunicamycin treatment
Protocol: FGF21 is a hormone with roles in glucose and lipid metabolism (74) and plays an survival role in the response to diverse stressful conditions, such as amino acid deprivation, mitochondrial stress and ER stress associated with diseases such as diabetes, cardiovascular disease (75-77).
Quantitative PCR was performed using SYBR-Green master mixture according to the manufacturer's instruction (Takara). Appropriate amounts of cDNA (or DNA) and primers were mixed with distilled water up to 10 μl and combined with equal amount of SYBR-Green master mixture. The reaction was run on the StepOne Real Time PCR system (Applied Biosystems, A&B). The Ct (cycle threshold) is defined as the cycle number required for the fluorescent signal to cross the threshold. The relative expression levels of target genes are calculated by normalizing to the expression level of GAPDH using delta-delta-Ct (Relative expression level=2^−(Cttarget−CtGapdh)). Melting curve was also measured to detect the specificity of the primers.

[3] = 13del mice, after 20-days ISRIB treatment

Cn1cc(-c2ccc3c(c2)CCN3C(=O)Cc2cccc(C(F)(F)F)c2)c2c(N)ncnc21 [GSK2606414]
effect of restoring protein synthesis through PERK inhibition (prion-infected mice): neuroprotective
side effects (prion-infected mice): weight loss and pancreatic toxicity

O=C(COc1ccc(Cl)cc1)N[C@H]1CC[C@H](NC(=O)COc2ccc(Cl)cc2)CC1 [ISRIB]
amount of ATF4 and CHOP protein (13del mice; 13del HZ, p10): reduced
transcripts and protein level of downstream targets (ATF3, ERO1l and FGF21) (13del mice; 13del HZ, p10): down-regulation
Atf3+ cells in L3-L6 NP, growth plates or endplates (13del mice; 13del lumbar IVD, after ISRIB treatment): no Atf3^+ cell can be detected
ectopic NP expression of Opn (13del mice; 13del lumbar NP, 20-days treatment): greatly reduced
number of reprogrammed chondrocytes in the growth plates and endplates (13del mice; 13del mice): reduced
chondrocyte-like cells present in iAF (13del mice; [3]): fewer
regularity of inner annulus fibrosus (iAF) (13del mice; [3]): more regular
Bip transcripts in HZ (13del mice; 13del mice, p10, in situ hybridization): not affected
HZ expansion in tail intervertebral disc growth plates (13del mice; 13del mice, p10 and p20): reduced
HZ expansion in the limb growth plates (13del mice; 13del mice, p10 and p20): greatly reduced
number of SOX9+, Col2a1+ and Ppr+ cells in the HZ (13del mice; 13del mice, p10 and p20): diminished
number of Sox9+ and Col2a1+ premature cells in tail intervertebral disc growth plates (13del mice; 13del mice, p10 and p20): decreased
IVD abnormalities in 13del lumbar spine (endplate expansion, iAF structure) (13del mice; ISRIB 2.5 mg/kg): eased
overall adverse effect in treated mice (13del mice; ISRIB 2.5 mg/kg i.p., E13.5 to p20): without any obvious adverse effect
apoptosis in 13del HC (13del mice; TUNEL): did not induce apoptosis
dwarfism of 13del mice (body length) (13del mice; new born to juvenile stages, ISRIB 2.5 mg/kg i.p. twice daily, E13.5 to p20): markedly reduced
skeletal deformities, radiographic analyses (length of tibia/femur and spine, genu varum, pelvic bone orientation, coxa vara) (13del mice; p20, ISRIB 2.5 mg/kg i.p.): ameliorated
neurotrophic effects (mice): significant neurotrophic effects
overall toxicity (mice): no overall toxicity
pharmacokinetic properties (mice): acceptable
effect on the limb growth plates in wild-type mice (wild-type mice; histology, p10): no observable effect
adverse effects on weight gain or body growth (wild-type mice; wild-type mice, ISRIB 2.5 mg/kg i.p. twice daily, E13.5 to p20): no adverse effects

O=C(O)CCCc1ccccc1 [phenylbutyric acid]
efficacy in chondrodysplasia [1]: ineffective

Growth hormone: Growth hormone (GH) therapy used to treat dwarfism
effect in cases with severe spinal deformities ([2]; in vivo): worsened kyphosis and lordosis
efficacy for height gain ([2]; most congenital skeletal dysplasias): ineffective

tunicamycin
increase of Fgf21 expression (Fgf21): > 100 fold
